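Results reflect a 48-hour exposure of cells in 96-well plates to compound at five concentrations. Abbreviation: GI50, concentration required for 50% inhibition of growth.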 Calls of active or inactive are those of the source. Cut-off read from the data, not from the text of the source: active = GI50 up to about 1.1 µM and inactive = higher.
Legend:
Assay in all cases: inhibition of tumour cell growth, NCI panel, 48 h
SF-268 = test system: SF-268
EKVX = test system: EKVX
M14 = test system: M14
MDA-MB-435 = test system: MDA-MB-435
HCC 2998 = test system: HCC 2998
UACC-257 = test system: UACC-257
OVCAR-3 = test system: OVCAR-3
SK-MEL-5 = test system: SK-MEL-5
NCI-H226 = test system: NCI-H226
NCI/ADR-RES = test system: NCI/ADR-RES
SR = test system: SR
MDA-N = test system: MDA-N
NCI-H23 = test system: NCI-H23
IGROV-1 = test system: IGROV-1
U-251 = test system: U-251
HL-60 = test system: HL-60
786-0 = test system: 786-0
DU-145 = test system: DU-145
CCRF-CEM = test system: CCRF-CEM
SK-OV-3 = test system: SK-OV-3
SF-295 = test system: SF-295
NCI-H522 = test system: NCI-H522
COLO 205 = test system: COLO 205
HCT-116 = test system: HCT-116
A549 = test system: A549
PC-3 = test system: PC-3
RXF 393 = test system: RXF 393
SNB-19 = test system: SNB-19
Malme-3M = test system: Malme-3M
SK-MEL-2 = test system: SK-MEL-2
ACHN = test system: ACHN
T47D = test system: T47D
SNB-75 = test system: SNB-75
OVCAR-5 = test system: OVCAR-5
UACC-62 = test system: UACC-62
SK-MEL-28 = test system: SK-MEL-28
A498 = test system: A498
OVCAR-8 = test system: OVCAR-8
NCI-H460 = test system: NCI-H460
K562 = test system: K562
BT-549 = test system: BT-549
HOP-62 = test system: HOP-62
HT-29 = test system: HT-29
UO-31 = test system: UO-31
MDA-MB-231 = test system: MDA-MB-231
CAKI-1 = test system: CAKI-1
MCF7 = test system: MCF7
SN12C = test system: SN12C
SW-620 = test system: SW-620
TK-10 = test system: TK-10
HOP-92 = test system: HOP-92
HCT-15 = test system: HCT-15
Hs-578T = test system: Hs-578T
LOX IMVI = test system: LOX IMVI
OVCAR-4 = test system: OVCAR-4
KM12 = test system: KM12
RPMI-8226 = test system: RPMI-8226
SF-539 = test system: SF-539
MOLT-4 = test system: MOLT-4

## O=C(O)CCC(C(=O)O)N1C(=O)c2ccccc2C1=O (centres undefined)
SF-268
  GI50: > 100 µM (inactive)
EKVX
  GI50: > 100 µM (inactive)
M14
  GI50: > 100 µM (inactive)
MDA-MB-435
  GI50: > 100 µM (inactive)
HCC 2998
  GI50: > 100 µM (inactive)
UACC-257
  GI50: > 100 µM (inactive)
OVCAR-3
  GI50: > 100 µM (inactive)
SK-MEL-5
  GI50: > 100 µM (inactive)
NCI-H226
  GI50: > 100 µM (inactive)
NCI/ADR-RES
  GI50: > 100 µM (inactive)
SR
  GI50: > 100 µM (inactive)
MDA-N
  GI50: > 100 µM (inactive)
NCI-H23
  GI50: > 100 µM (inactive)
IGROV-1
  GI50: > 100 µM (inactive)
U-251
  GI50: > 100 µM (inactive)
HL-60
  GI50: > 100 µM (inactive)
786-0
  GI50: > 100 µM (inactive)
DU-145
  GI50: > 100 µM (inactive)
CCRF-CEM
  GI50: > 100 µM (inactive)
SK-OV-3
  GI50: > 100 µM (inactive)
SF-295
  GI50: > 100 µM (inactive)
NCI-H522
  GI50: > 100 µM (inactive)
COLO 205
  GI50: > 100 µM (inactive)
HCT-116
  GI50: > 100 µM (inactive)
A549
  GI50: > 100 µM (inactive)
PC-3
  GI50: > 100 µM (inactive)
RXF 393
  GI50: > 100 µM (inactive)
SNB-19
  GI50: > 100 µM (inactive)
Malme-3M
  GI50: > 100 µM (inactive)
SK-MEL-2
  GI50: > 100 µM (inactive)
ACHN
  GI50: > 100 µM (inactive)
T47D
  GI50: > 100 µM (inactive)
SNB-75
  GI50: > 100 µM (inactive)
OVCAR-5
  GI50: > 100 µM (inactive)
UACC-62
  GI50: > 100 µM (inactive)
SK-MEL-28
  GI50: > 100 µM (inactive)
A498
  GI50: > 100 µM (inactive)
OVCAR-8
  GI50: > 100 µM (inactive)
NCI-H460
  GI50: > 100 µM (inactive)
K562
  GI50: > 100 µM (inactive)
BT-549
  GI50: > 100 µM (inactive)
HOP-62
  GI50: > 100 µM (inactive)
HT-29
  GI50: > 100 µM (inactive)
UO-31
  GI50: > 100 µM (inactive)
MDA-MB-231
  GI50: > 100 µM (inactive)
CAKI-1
  GI50: > 100 µM (inactive)
MCF7
  GI50: > 100 µM (inactive)
SN12C
  GI50: > 100 µM (inactive)
SW-620
  GI50: > 100 µM (inactive)
TK-10
  GI50: > 100 µM (inactive)
HOP-92
  GI50: > 100 µM (inactive)
HCT-15
  GI50: > 100 µM
Hs-578T
  GI50: > 100 µM (inactive)
LOX IMVI
  GI50: > 100 µM (inactive)
OVCAR-4
  GI50: > 100 µM (inactive)
KM12
  GI50: > 100 µM (inactive)
RPMI-8226
  GI50: > 100 µM (inactive)

## CC[C@@]12CCCN3CC[C@]4(c5cccc(OC)c5N(C(C)=O)[C@@H]4CC1)[C@H]32 [ASPIDOSPERMINE]
SF-268
  GI50: > 100 µM (inactive)
EKVX
  GI50: 44.2 µM (inactive)
M14
  GI50: 36.5 µM (inactive)
MDA-MB-435
  GI50: 38.3 µM (inactive)
HCC 2998
  GI50: 23 µM (inactive)
UACC-257
  GI50: 31.8 µM (inactive)
OVCAR-3
  GI50: > 100 µM (inactive)
SK-MEL-5
  GI50: 44.3 µM (inactive)
NCI-H226
  GI50: 93.8 µM (inactive)
NCI/ADR-RES
  GI50: > 100 µM (inactive)
SR
  GI50: 27.7 µM (inactive)
MDA-N
  GI50: 34.6 µM (inactive)
SF-539
  GI50: 78.5 µM (inactive)
NCI-H23
  GI50: > 100 µM (inactive)
MOLT-4
  GI50: 25.3 µM (inactive)
IGROV-1
  GI50: 24.2 µM (inactive)
U-251
  GI50: 94 µM (inactive)
HL-60
  GI50: 20.7 µM (inactive)
786-0
  GI50: 80.5 µM (inactive)
DU-145
  GI50: > 100 µM (inactive)
CCRF-CEM
  GI50: 26.2 µM (inactive)
SK-OV-3
  GI50: > 100 µM (inactive)
SF-295
  GI50: 46.6 µM (inactive)
NCI-H522
  GI50: 32.3 µM (inactive)
COLO 205
  GI50: > 100 µM (inactive)
HCT-116
  GI50: 44.9 µM (inactive)
A549
  GI50: > 100 µM (inactive)
PC-3
  GI50: 43 µM (inactive)
RXF 393
  GI50: 60.4 µM (inactive)
SNB-19
  GI50: > 100 µM (inactive)
Malme-3M
  GI50: > 100 µM (inactive)
SK-MEL-2
  GI50: 90.4 µM (inactive)
ACHN
  GI50: > 100 µM (inactive)
T47D
  GI50: > 100 µM (inactive)
OVCAR-5
  GI50: > 100 µM (inactive)
UACC-62
  GI50: > 100 µM (inactive)
SK-MEL-28
  GI50: 80.2 µM (inactive)
A498
  GI50: 42.7 µM (inactive)
OVCAR-8
  GI50: > 100 µM (inactive)
NCI-H460
  GI50: 54.3 µM (inactive)
BT-549
  GI50: 86.9 µM (inactive)
HOP-62
  GI50: > 100 µM (inactive)
HT-29
  GI50: 21 µM (inactive)
UO-31
  GI50: 68.5 µM (inactive)
MDA-MB-231
  GI50: > 100 µM (inactive)
CAKI-1
  GI50: > 100 µM (inactive)
MCF7
  GI50: 63.1 µM (inactive)
SN12C
  GI50: > 100 µM (inactive)
SW-620
  GI50: > 100 µM (inactive)
TK-10
  GI50: 56.5 µM (inactive)
HOP-92
  GI50: 35.6 µM (inactive)
HCT-15
  GI50: 79.3 µM
Hs-578T
  GI50: 23.9 µM (inactive)
LOX IMVI
  GI50: 30.6 µM (inactive)
OVCAR-4
  GI50: 92.9 µM (inactive)
KM12
  GI50: 84.5 µM (inactive)
RPMI-8226
  GI50: 38.2 µM (inactive)

## Cn1nnnc1SC(F)(F)c1nc2ccccc2o1
SF-268
  GI50: > 100 µM (inactive)
M14
  GI50: > 100 µM (inactive)
MDA-MB-435
  GI50: > 100 µM (inactive)
HCC 2998
  GI50: > 100 µM (inactive)
UACC-257
  GI50: > 100 µM (inactive)
OVCAR-3
  GI50: > 100 µM (inactive)
SK-MEL-5
  GI50: > 100 µM (inactive)
NCI-H226
  GI50: > 100 µM (inactive)
NCI/ADR-RES
  GI50: > 100 µM (inactive)
SR
  GI50: > 100 µM (inactive)
MDA-N
  GI50: > 100 µM (inactive)
SF-539
  GI50: > 100 µM (inactive)
NCI-H23
  GI50: > 100 µM (inactive)
MOLT-4
  GI50: 24.1 µM (inactive)
IGROV-1
  GI50: > 100 µM (inactive)
U-251
  GI50: > 100 µM (inactive)
786-0
  GI50: > 100 µM (inactive)
DU-145
  GI50: > 100 µM (inactive)
CCRF-CEM
  GI50: 25.1 µM (inactive)
SK-OV-3
  GI50: > 100 µM (inactive)
SF-295
  GI50: > 100 µM (inactive)
NCI-H522
  GI50: > 100 µM (inactive)
COLO 205
  GI50: > 100 µM (inactive)
HCT-116
  GI50: > 100 µM (inactive)
A549
  GI50: > 100 µM (inactive)
PC-3
  GI50: > 100 µM (inactive)
RXF 393
  GI50: > 100 µM (inactive)
Malme-3M
  GI50: > 100 µM (inactive)
SK-MEL-2
  GI50: > 100 µM (inactive)
ACHN
  GI50: > 100 µM (inactive)
T47D
  GI50: > 100 µM (inactive)
SNB-75
  GI50: 52.1 µM (inactive)
OVCAR-5
  GI50: > 100 µM (inactive)
UACC-62
  GI50: > 100 µM (inactive)
SK-MEL-28
  GI50: > 100 µM (inactive)
A498
  GI50: > 100 µM (inactive)
OVCAR-8
  GI50: > 100 µM (inactive)
NCI-H460
  GI50: > 100 µM (inactive)
K562
  GI50: > 100 µM (inactive)
BT-549
  GI50: > 100 µM (inactive)
HOP-62
  GI50: > 100 µM (inactive)
HT-29
  GI50: > 100 µM (inactive)
UO-31
  GI50: > 100 µM (inactive)
MDA-MB-231
  GI50: > 100 µM (inactive)
CAKI-1
  GI50: > 100 µM (inactive)
MCF7
  GI50: > 100 µM (inactive)
SN12C
  GI50: > 100 µM (inactive)
SW-620
  GI50: > 100 µM (inactive)
TK-10
  GI50: > 100 µM (inactive)
HOP-92
  GI50: > 100 µM (inactive)
HCT-15
  GI50: > 100 µM
Hs-578T
  GI50: > 100 µM (inactive)
OVCAR-4
  GI50: > 100 µM (inactive)
KM12
  GI50: 35.9 µM (inactive)
RPMI-8226
  GI50: > 100 µM (inactive)

From ChEMBL document CHEMBL1201862, “PubChem BioAssay data set” (2004)
